Assay [1] deals with A375 human malignant melanoma. Kind of assay: Cell Proliferation Assay, A375. In kind it is cell-based. The following applies: A-375, A375 cell line, 72 h, CellTiter-Glo. As for the experimental part:
(§1) Compounds are tested in a cell proliferation assay using the following cell lines:
(§2) Both cell lines are maintained in DMEM/F12 (1:1) media (Gibco) supplemented with 10% FCS at 37° C. in a 5% CO2 humidified incubator.
(§3) Cells are seeded in 96-well plates at 2,000 cells/well and after 24 hours they are exposed to different concentrations of compounds in 0.83% DMSO. Cells are grown for a further 72 h, and an equal volume of CellTiter-Glo reagent (Promega) is added to each well. This lyses the cells and generates a luminescent signal proportional to the amount of ATP released (and therefore proportional to the number of cells in the well) that can be detected using a multi-well luminometer.
(§4) The EC50 is defined as the concentration at which a given compound achieves 50% inhibition of control. IC50 values are calculated using the XLfit software package (version 2.0.5).
(Cellular ATP, detected with luciferase, serves as a proxy for viable cell number.)

The subject of assay [2] is phospho-ERK in HCT116 cell line. As to the kind of experiment: Phospho-ERK Cell-Based Assay, HCT116. The conditions noted are these: Homo sapiens, HCT-116, exposure 2 h or 24 h. The method, then: Compounds are tested in a cell-based phospho-ERK ELISA using the following cell lines:
as §2
Cells are seeded in 96-well plates at 2,000 cells/well and after 24 h they are exposed to different concentrations of compounds in 0.83% DMSO. Cells are grown for a further 2 h or 24 h, fixed with formaldehyde (2% final) and permeabilised with methanol. Following blocking with TBST-3% BSA, fixed cells are incubated with primary antibody (anti-phospho ERK from rabbit) over-night at 4° C. Cells are incubated with Propidium Iodide (DNA fluorescent dye) and detection of cellular p-ERK is performed using an anti-rabbit secondary antibody conjugated to the fluorescent Alexa Fluor 488 dye (Molecular probes). The fluorescence is analysed using the Acumen Explorer (TTP Labtech), a laser-scanning microplate cytometer, and the Alexa Fluor 488 signal is normalised to the PI signal (proportional to cell number).
The EC50 is defined as the concentration at which a given compound achieves a signal half way between the baseline and the maximum response. EC50 values are calculated using the XLfit software package (version 2.0.5).

Assay [3] deals with constitutively activated human mutant MEK1 (Homo sapiens, UniProt Q02750). Kind of assay: MEK Assay (MEK Activity Assay). Format: biochemical. The conditions noted are these: 15 nM MEK1, 50 μM ATP, GST-ERK1 substrate, 30 minutes, HTRF; read-out: IC50 in the MEK activity assay of Example 1. As for the experimental part:
Constitutively activated human mutant MEK1 expressed in insect cells is used as source of enzymatic activity at a final concentration in the kinase assay of 15 nM.
The assay is carried out for 30 minutes in the presence of 50 μM ATP using recombinant GST-ERK1 produced in E. Coli as substrate. Phosphorylation of the substrate is detected and quantified using HTRF reagents supplied by Cisbio. These consist of an anti-GST antibody conjugated to allophycocyanin (XL665) and an anti-phospho (Thr202/Tyr204) ERK antibody conjugated to europium-cryptate. These are used at a final concentration of 4 μg/ml and 0.84 μg/ml respectively. The anti-phospho antibody recognises ERK1 dually phosphorylated on Thr202 and Tyr204. When both antibodies are bound to ERK1 (i.e. when the substrate is phosphorylated), energy transfer from the cryptate to the allophycocyanin occurs following excitation at 340 nm, resulting in fluorescence being emitted that is proportional to the amount of phosphorylated substrate produced. Fluorescence is detected using a multiwell fluorimeter.
Compounds are diluted in DMSO prior to addition to assay buffer and the final DMSO concentration in the assay is 1%.
The IC50 is defined as the concentration at which a given compound achieves 50% inhibition of control. IC50 values are calculated using the XLfit software package (version 2.0.5).

Assay [4] deals with HCT116 human colorectal carcinoma. As to the kind of experiment: Cell Proliferation Assay, HCT116. In kind it is cell-based. The conditions noted are these: HCT-116, HCT116 cell line, 72 h, CellTiter-Glo. The method, then: as §1, §2, §3, §4

Sequence of constitutively activated human mutant MEK1 (Q02750 whole entry S218D/S222D, form open): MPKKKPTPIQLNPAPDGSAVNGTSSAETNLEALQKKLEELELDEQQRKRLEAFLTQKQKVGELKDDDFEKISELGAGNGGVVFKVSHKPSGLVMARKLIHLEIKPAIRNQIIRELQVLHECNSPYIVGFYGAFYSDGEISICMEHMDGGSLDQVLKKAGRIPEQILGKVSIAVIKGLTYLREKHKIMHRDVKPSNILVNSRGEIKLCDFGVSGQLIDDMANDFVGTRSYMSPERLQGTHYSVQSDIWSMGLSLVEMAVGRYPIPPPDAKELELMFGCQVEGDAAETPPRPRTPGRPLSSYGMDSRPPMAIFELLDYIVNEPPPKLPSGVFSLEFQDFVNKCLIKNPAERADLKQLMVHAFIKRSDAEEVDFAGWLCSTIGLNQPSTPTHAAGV

The term EC50 denotes the concentration that produces a half-maximal response. Low values mean greater potency, high ones weaker potency. One may read the IC50 as the concentration that inhibits the measured activity by half. Consider `O=C1NCc2cc(C(=O)NOCCO)c(Nc3ccc(I)cc3F)cc21` [Example 5, 6-(2-Fluoro-4-iodo-phenylamino)-1-oxo-2,3-dihydro-1H-isoindole-5-carboxylic acid (2-hydroxy-ethoxy)-amide], for which the EC50 in assay [1], in assay [2] and in assay [4] was < 500 nM throughout. Also, the 50% inhibitory concentration (IC50) in assay [3] is < 100 nM.

(Values after patent US8492427B2, “Isoindolones derivatives as MEK kinase inhibitors and methods of use” (Genentech, Inc., priority 2008, dated 2013).)
